Test results as given in US20090075281A1, “MTBE GENES” (REGENTS OF THE UNIVERSITY OF CALIFORNIA, priority 2007, published 2009).

Tests used:
[1] = system: PM1; experiment: MTBE degradation kinetics by PM1; format: cell-based, Methylibium petroleiphilum PM1
[2] = system: M. petroleiphilum PM1; experiment: PM1 growth in mineral salts medium (MSM) on a sole carbon source; format: cell-based, Methylibium petroleiphilum PM1; conditions: for doubling time of PM1 cells, t1/2: cells growing on the substance as sole carbon source; for concentration up to which PM1 is capable of growth: on MSM
[3] = system: M. petroleiphilum PM1; experiment: PM1 tolerance of MTBE on tryptic soy broth media; format: cell-based, Methylibium petroleiphilum PM1
[4] = system: n-alkane grown GPo 1; conditions: cited from earlier work
[5] = used to calculate solution-phase concentration; cited from earlier work

| Structure (SMILES) | apparent half saturation constant for MTBE [1] [µM] | doubling time of PM1 cells, t1/2 [2] [h] | concentration up to which PM1 is capable of growth [2] | tolerated concentration [3] | Ks values for MTBE [4] [mM] | dimensionless Henry's constant [5] |
| --- | --- | --- | --- | --- | --- | --- |
| COC(C)(C)C [MTBE, methyl tert-butyl ether] | 88 | 15 | up to 1000 mg/L | up to 5,000 mg/L | 20 to 40 | 0.023 |
| CCO [ethanol] | – | 6.1 | up to 7.9 g/L | – | – | – |
